Test results from the supplement of paper PMC10307832.

Experiments:
Test in all cases: relative viability (nuclei count vs DMSO), 5 days (fraction); higher = more cells survive
201T = tested on: 201T
Method in brief: (§1)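 Values are medians from duplicate plates. Each reflects relative viability, defined as the nuclei count of treated wells over that of vehicle wells. Lung cancer cell lines in 1536-well plates were pin-tool dosed one day after seeding with one drug alone or with a fixed anchor-drug dose plus five library-drug doses (not always all listed) in √10 steps, then fixed, stained and imaged at 4× after 5 days.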

BEN = tested on: BEN
Method in brief: as §1

CAL-12T = tested on: CAL-12T
Method in brief: as §1

HCC-827 = tested on: HCC-827
Method in brief: as §1

LCLC-103H = tested on: LCLC-103H
Method in brief: as §1

LCLC-97TM1 = tested on: LCLC-97TM1
Method in brief: as §1

LXF-289 = tested on: LXF-289
Method in brief: as §1

NCI-H1395 = tested on: NCI-H1395
Method in brief: as §1

NCI-H1437 = tested on: NCI-H1437
Method in brief: as §1

NCI-H1650 = tested on: NCI-H1650
Method in brief: as §1

NCI-H1793 = tested on: NCI-H1793
Method in brief: as §1

NCI-H1944 = tested on: NCI-H1944
Method in brief: as §1

NCI-H2087 = tested on: NCI-H2087
Method in brief: as §1

NCI-H2228 = tested on: NCI-H2228
Method in brief: as §1

NCI-H2405 = tested on: NCI-H2405
Method in brief: as §1

NCI-H3122 = tested on: NCI-H3122
Method in brief: as §1

NCI-H322M = tested on: NCI-H322M
Method in brief: as §1

NCI-H647 = tested on: NCI-H647
Method in brief: as §1

NCI-H727 = tested on: NCI-H727
Method in brief: as §1

RERF-LC-KJ = tested on: RERF-LC-KJ
Method in brief: as §1

SK-LU-1 = tested on: SK-LU-1
Method in brief: as §1

CCN(CC)CCCCNc1ncc2cc(-c3cc(OC)cc(OC)c3)c(NC(=O)NC(C)(C)C)nc2n1 + COc1cc2c(Oc3ccc(NC(=O)C4(C(=O)Nc5ccc(F)cc5)CC4)cc3F)ccnc2cc1OCCCN1CCOCC1 [Foretinib] (partner 0.25 µM)
relative viability (201T; first compound 0.03162 µM): 1.06 | relative viability (201T; first compound 0.1 µM): 1.2 | relative viability (201T; first compound 0.3162 µM): 1.05 | relative viability (201T; first compound 1 µM): 1.03 | relative viability (BEN; first compound 0.01 µM): 0.597 | relative viability (BEN; first compound 0.03162 µM): 0.544 | relative viability (BEN; first compound 0.1 µM): 0.796 | relative viability (BEN; first compound 0.3162 µM): 0.618 | relative viability (BEN; first compound 1 µM): 0.382 | relative viability (CAL-12T; first compound 0.01 µM): 1.13 | relative viability (CAL-12T; first compound 0.03162 µM): 1.2 | relative viability (CAL-12T; first compound 0.1 µM): 1.35 | relative viability (CAL-12T; first compound 0.3162 µM): 1.23 | relative viability (CAL-12T; first compound 1 µM): 1.19 | relative viability (HCC-827; first compound 0.01 µM): 1.05 | relative viability (HCC-827; first compound 0.03162 µM): 1.01 | relative viability (HCC-827; first compound 0.1 µM): 1.19 | relative viability (HCC-827; first compound 0.3162 µM): 1.17 | relative viability (HCC-827; first compound 1 µM): 1.05 | relative viability (LCLC-103H; first compound 0.01 µM): 0.942 | relative viability (LCLC-103H; first compound 0.03162 µM): 0.866 | relative viability (LCLC-103H; first compound 0.1 µM): 0.858 | relative viability (LCLC-103H; first compound 0.3162 µM): 0.755 | relative viability (LCLC-103H; first compound 1 µM): 0.597 | relative viability (LCLC-97TM1; first compound 0.01 µM): 1.1 | relative viability (LCLC-97TM1; first compound 0.03162 µM): 0.94 | relative viability (LCLC-97TM1; first compound 0.1 µM): 1.03 | relative viability (LCLC-97TM1; first compound 0.3162 µM): 1.06 | relative viability (LCLC-97TM1; first compound 1 µM): 0.95 | relative viability (LXF-289; first compound 0.01 µM): 0.979 | relative viability (LXF-289; first compound 0.03162 µM): 0.989 | relative viability (LXF-289; first compound 0.1 µM): 1.02 | relative viability (LXF-289; first compound 0.3162 µM): 0.975 | relative viability (LXF-289; first compound 1 µM): 0.851 | relative viability (NCI-H1395; first compound 0.01 µM): 0.999 | relative viability (NCI-H1395; first compound 0.03162 µM): 1.02 | relative viability (NCI-H1395; first compound 0.1 µM): 0.912 | relative viability (NCI-H1395; first compound 0.3162 µM): 0.887 | relative viability (NCI-H1395; first compound 1 µM): 0.818 | relative viability (NCI-H1437; first compound 0.01 µM): 1.47 | relative viability (NCI-H1437; first compound 0.03162 µM): 1.21 | relative viability (NCI-H1437; first compound 0.1 µM): 1.3 | relative viability (NCI-H1437; first compound 0.3162 µM): 1.3 | relative viability (NCI-H1437; first compound 1 µM): 1.16 | relative viability (NCI-H1650; first compound 0.01 µM): 1.26 | relative viability (NCI-H1650; first compound 0.03162 µM): 1.11 | relative viability (NCI-H1650; first compound 0.1 µM): 1.1 | relative viability (NCI-H1650; first compound 0.3162 µM): 1.2 | relative viability (NCI-H1650; first compound 1 µM): 1.12 | relative viability (NCI-H1793; first compound 0.01 µM): 0.734 | relative viability (NCI-H1793; first compound 0.03162 µM): 0.759 | relative viability (NCI-H1793; first compound 0.1 µM): 0.716 | relative viability (NCI-H1793; first compound 0.3162 µM): 0.676 | relative viability (NCI-H1793; first compound 1 µM): 0.403 | relative viability (NCI-H1944; first compound 0.01 µM): 0.848 | relative viability (NCI-H1944; first compound 0.03162 µM): 0.873 | relative viability (NCI-H1944; first compound 0.1 µM): 0.844 | relative viability (NCI-H1944; first compound 0.3162 µM): 0.946 | relative viability (NCI-H1944; first compound 1 µM): 0.771 | relative viability (NCI-H2087; first compound 0.01 µM): 1.25 | relative viability (NCI-H2087; first compound 0.03162 µM): 1.13 | relative viability (NCI-H2087; first compound 0.1 µM): 1.45 | relative viability (NCI-H2087; first compound 0.3162 µM): 1.16 | relative viability (NCI-H2087; first compound 1 µM): 1.21 | relative viability (NCI-H2228; first compound 0.01 µM): 1.03 | relative viability (NCI-H2228; first compound 0.03162 µM): 1.01 | relative viability (NCI-H2228; first compound 0.1 µM): 1.35 | relative viability (NCI-H2228; first compound 0.3162 µM): 0.998 | relative viability (NCI-H2228; first compound 1 µM): 0.635 | relative viability (NCI-H2405; first compound 0.01 µM): 1.05 | relative viability (NCI-H2405; first compound 0.03162 µM): 1.05 | relative viability (NCI-H2405; first compound 0.1 µM): 1.03 | relative viability (NCI-H2405; first compound 0.3162 µM): 1.07 | relative viability (NCI-H2405; first compound 1 µM): 1.04 | relative viability (NCI-H3122; first compound 0.01 µM): 0.967 | relative viability (NCI-H3122; first compound 0.03162 µM): 0.927 | relative viability (NCI-H3122; first compound 0.1 µM): 1.08 | relative viability (NCI-H3122; first compound 0.3162 µM): 1.05 | relative viability (NCI-H3122; first compound 1 µM): 1.02 | relative viability (NCI-H322M; first compound 0.01 µM): 0.991 | relative viability (NCI-H322M; first compound 0.03162 µM): 0.946 | relative viability (NCI-H322M; first compound 0.1 µM): 1.08 | relative viability (NCI-H322M; first compound 0.3162 µM): 1.01 | relative viability (NCI-H322M; first compound 1 µM): 0.966 | relative viability (NCI-H647; first compound 0.01 µM): 1.15 | relative viability (NCI-H647; first compound 0.03162 µM): 1.39 | relative viability (NCI-H647; first compound 0.1 µM): 1.43 | relative viability (NCI-H647; first compound 0.3162 µM): 1.55 | relative viability (NCI-H647; first compound 1 µM): 1.08 | relative viability (NCI-H727; first compound 0.01 µM): 0.956 | relative viability (NCI-H727; first compound 0.03162 µM): 0.834 | relative viability (NCI-H727; first compound 0.1 µM): 0.919 | relative viability (NCI-H727; first compound 0.3162 µM): 1.05 | relative viability (NCI-H727; first compound 1 µM): 0.844 | relative viability (RERF-LC-KJ; first compound 0.01 µM): 0.893 | relative viability (RERF-LC-KJ; first compound 0.03162 µM): 0.901 | relative viability (RERF-LC-KJ; first compound 0.1 µM): 0.871 | relative viability (RERF-LC-KJ; first compound 0.3162 µM): 0.872 | relative viability (RERF-LC-KJ; first compound 1 µM): 0.941 | relative viability (SK-LU-1; first compound 0.01 µM): 0.942 | relative viability (SK-LU-1; first compound 0.03162 µM): 0.78 | relative viability (SK-LU-1; first compound 0.1 µM): 1.12 | relative viability (SK-LU-1; first compound 0.3162 µM): 1.07 | relative viability (SK-LU-1; first compound 1 µM): 0.662
